Source: PubChem BioAssay AID743502 (Broad Institute, 2014)
Calls of active or inactive are those of the source.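 The calls were made as follows: active = IC50 under 35 µM against the melanocortin-4 receptor MC4R counterscreen signal; inactive = IC50 above 35 µM.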

system: HEK293 transfected MC4R, CRE-luciferase, beta-gal normalized; experiment: MC4R antagonists in CRE-luciferase reporter cells, dose response, counter-screen for LGR2 antagonist project, cell-based, HEK293, beta-gal normalized, luminescence, dry powder (AID 743502)

Row | Compound | IC50
1 | C[C@H](CO)N1C[C@H](C)[C@H](CN(C)C(=O)Nc2ccc(F)cc2)OCCCC[C@H](C)Oc2ccc(NC(=O)C3CCCC3)cc2C1=O | > 35 µM (inactive)
2 | C[C@H](CO)N1C[C@H](C)[C@H](CN(C)C(=O)Nc2ccc(F)cc2)OCCCC[C@H](C)Oc2ccc(NC(=O)C3CCCCCC3)cc2C1=O | > 35 µM (inactive)
3 | C[C@H]1CCCCO[C@@H](CN(C)C(=O)Nc2cccc3ccccc23)[C@@H](C)CN([C@@H](C)CO)C(=O)c2cc(NC(=O)C3CCCCC3)ccc2O1 | > 35 µM (inactive)
4 | Cc1ccc(NC(=O)N(C)C[C@@H]2OCCCC[C@H](C)Oc3ccc(NC(=O)C4CCCCC4)cc3C(=O)N([C@H](C)CO)C[C@@H]2C)cc1 | > 35 µM (inactive)
5 | C[C@H](CO)N1C[C@H](C)[C@H](CN(C)C(=O)Nc2ccc3ccccc3c2)OCCCC[C@H](C)Oc2ccc(NC(=O)C3CCCCC3)cc2C1=O | > 35 µM (inactive)
6 | C[C@H](CO)N1C[C@H](C)[C@H](CN(C)C(=O)Nc2cccc3ccccc23)OCCCC[C@H](C)Oc2ccc(NC(=O)C3CCCCC3)cc2C1=O | > 35 µM (inactive)
7 | C[C@@H]1CN([C@@H](C)CO)C(=O)c2cc(NC(=O)C3CCCCC3)ccc2O[C@@H](C)CCCCO[C@H]1CN(C)C(=O)Nc1cccc2ccccc12 | > 35 µM (inactive)
8 | C[C@H](CO)N1C[C@H](C)[C@H](CN(C)C(=O)Nc2ccc(Cl)cc2)OCCCC[C@H](C)Oc2ccc(NC(=O)C3CCCCC3)cc2C1=O | > 35 µM (inactive)
9 | C[C@H](CO)N1C[C@H](C)[C@H](CN(C)C(=O)Nc2cccc(F)c2)OCCCC[C@H](C)Oc2ccc(NC(=O)C3CCCCC3)cc2C1=O | > 35 µM (inactive)
10 | C[C@H](CO)N1C[C@H](C)[C@H](CN(C)C(=O)Nc2ccccc2F)OCCCC[C@H](C)Oc2ccc(NC(=O)C3CCCCC3)cc2C1=O | > 35 µM (inactive)
